Key:
[1] = test system: brains, heart, liver, muscle, and DRG of the NHPs; test: Maturation of TTM-001 and TTM-002 capsids, NGS enrichment in NHP tissues; type: in vivo; settings: relative to AAV9 control
Summary of the method: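 Variants carry mutations within and flanking the loop IV peptide insert: positions 450–466 were triplet-randomized, while positions 449–466 received low-frequency point mutations. The combined pool went into two NHPs, and each peptide was scored by NGS enrichment ratio against AAV9.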

[2] = test system: brain; test: Matured TTM-001 and TTM-002 variants, NGS enrichment in mouse brain; type: in vivo, mice; settings: relative to AAV9 control
[3] = NGS fold-enrichment of matured AAV capsid variants, NHP brain, RNA
[4] = NGS fold-enrichment, DRG of NHPs
[5] = NGS fold-enrichment, RNA, brain of NHPs
[6] = NGS fold-enrichment, heart of NHPs
[7] = NGS fold-enrichment, liver DNA of NHPs
[8] = NGS fold-enrichment, liver RNA of NHPs
[9] = NGS fold-enrichment, muscle of NHPs
[10] = NGS fold-enrichment, brain of mice

Sequence: KTINVSGSPHSKAQGQQT
- Fold Enrichment relative to AAV9, Brain (NHP) [1, 3]: 55.870 fold
- Fold Enrichment relative to AAV9, DRG (NHP) ([1]; NHP DRG): 0.000 fold
- Fold Enrichment relative to AAV9, Heart (NHP) ([1]; NHP heart): 0.191 fold
- Fold Enrichment relative to AAV9, Liver DNA (NHP) ([1]; NHP liver, DNA): 0.040 fold
- Fold Enrichment relative to AAV9, Liver RNA (NHP) ([1]; NHP liver, RNA): 0.592 fold
- Fold Enrichment relative to AAV9, Muscle (NHP) ([1]; NHP muscle): 0.000 fold
- Fold Enrichment relative to AAV9, Brain (Mouse) ([2]; mouse brain): 87.211 fold

Sequence: KTIPAIGSPHSKAQNQQT
- Fold Enrichment relative to AAV9, Brain (NHP) [1, 3]: 52.346 fold
- Fold Enrichment relative to AAV9, DRG (NHP) ([1]; NHP DRG): 0.000 fold
- Fold Enrichment relative to AAV9, Heart (NHP) ([1]; NHP heart): 0.009 fold
- Fold Enrichment relative to AAV9, Liver DNA (NHP) ([1]; NHP liver, DNA): 0.134 fold
- Fold Enrichment relative to AAV9, Liver RNA (NHP) ([1]; NHP liver, RNA): 0.034 fold
- Fold Enrichment relative to AAV9, Muscle (NHP) ([1]; NHP muscle): 0.000 fold
- Fold Enrichment relative to AAV9, Brain (Mouse) ([2]; mouse brain): 51.949 fold

Sequence: KTIPIDGSPHSKAQNQQT
- Fold Enrichment relative to AAV9, DRG (NHP) [1, 4]: 0.000 fold
- Fold Enrichment relative to AAV9, Brain (NHP) [1, 5]: 64.421 fold
- Fold Enrichment relative to AAV9, Heart (NHP) [1, 6]: 0.047 fold
- Fold Enrichment relative to AAV9, Liver DNA (NHP) [1, 7]: 0.936 fold
- Fold Enrichment relative to AAV9, Liver RNA (NHP) [1, 8]: 0.234 fold
- Fold Enrichment relative to AAV9, Muscle (NHP) [1, 9]: 0.000 fold
- Fold Enrichment relative to AAV9, Brain (Mouse) [2, 10]: 76.826 fold

Sequence: KTIPKNGSPHSKAQNQQT
- Fold Enrichment relative to AAV9, Brain (NHP) [1, 3]: 53.824 fold
- Fold Enrichment relative to AAV9, DRG (NHP) ([1]; NHP DRG): 0.000 fold
- Fold Enrichment relative to AAV9, Heart (NHP) ([1]; NHP heart): 0.032 fold
- Fold Enrichment relative to AAV9, Liver DNA (NHP) ([1]; NHP liver, DNA): 0.178 fold
- Fold Enrichment relative to AAV9, Liver RNA (NHP) ([1]; NHP liver, RNA): 0.115 fold
- Fold Enrichment relative to AAV9, Muscle (NHP) ([1]; NHP muscle): 0.000 fold
- Fold Enrichment relative to AAV9, Brain (Mouse) ([2]; mouse brain): 77.458 fold

Sequence: KTIPMEGSPHSKAQNQQT
- Fold Enrichment relative to AAV9, Brain (NHP) [1, 3]: 56.560 fold
- Fold Enrichment relative to AAV9, DRG (NHP) ([1]; NHP DRG): 0.000 fold
- Fold Enrichment relative to AAV9, Heart (NHP) ([1]; NHP heart): 0.000 fold
- Fold Enrichment relative to AAV9, Liver DNA (NHP) ([1]; NHP liver, DNA): 0.371 fold
- Fold Enrichment relative to AAV9, Liver RNA (NHP) ([1]; NHP liver, RNA): 1.824 fold
- Fold Enrichment relative to AAV9, Muscle (NHP) ([1]; NHP muscle): 0.000 fold
- Fold Enrichment relative to AAV9, Brain (Mouse) ([2]; mouse brain): 89.951 fold

Sequence: KTIQDGGSPHSKAQNQQT
- Fold Enrichment relative to AAV9, DRG (NHP) [1, 4]: 0.000 fold
- Fold Enrichment relative to AAV9, Brain (NHP) [1, 5]: 59.865 fold
- Fold Enrichment relative to AAV9, Heart (NHP) [1, 6]: 0.000 fold
- Fold Enrichment relative to AAV9, Liver DNA (NHP) [1, 7]: 0.789 fold
- Fold Enrichment relative to AAV9, Liver RNA (NHP) [1, 8]: 1.435 fold
- Fold Enrichment relative to AAV9, Muscle (NHP) [1, 9]: 0.116 fold
- Fold Enrichment relative to AAV9, Brain (Mouse) [2, 10]: 87.522 fold

Sequence: KTIRDAGSPHSKAQNQQT
- Fold Enrichment relative to AAV9, DRG (NHP) [1, 4]: 0.000 fold
- Fold Enrichment relative to AAV9, Brain (NHP) [1, 5]: 60.346 fold
- Fold Enrichment relative to AAV9, Heart (NHP) [1, 6]: 0.000 fold
- Fold Enrichment relative to AAV9, Liver DNA (NHP) [1, 7]: 0.251 fold
- Fold Enrichment relative to AAV9, Liver RNA (NHP) [1, 8]: 0.141 fold
- Fold Enrichment relative to AAV9, Muscle (NHP) [1, 9]: 0.000 fold
- Fold Enrichment relative to AAV9, Brain (Mouse) [2, 10]: 113.179 fold

Sequence: KTIRENGSPHSKAQNQQT
- Fold Enrichment relative to AAV9, Brain (NHP) [1, 3]: 55.605 fold
- Fold Enrichment relative to AAV9, DRG (NHP) ([1]; NHP DRG): 0.000 fold
- Fold Enrichment relative to AAV9, Heart (NHP) ([1]; NHP heart): 0.000 fold
- Fold Enrichment relative to AAV9, Liver DNA (NHP) ([1]; NHP liver, DNA): 0.257 fold
- Fold Enrichment relative to AAV9, Liver RNA (NHP) ([1]; NHP liver, RNA): 0.131 fold
- Fold Enrichment relative to AAV9, Muscle (NHP) ([1]; NHP muscle): 0.016 fold
- Fold Enrichment relative to AAV9, Brain (Mouse) ([2]; mouse brain): 95.931 fold

Sequence: KTISGGGSPHSKAQNQQN
- Fold Enrichment relative to AAV9, DRG (NHP) [1, 4]: 0.000 fold
- Fold Enrichment relative to AAV9, Brain (NHP) [1, 5]: 59.801 fold
- Fold Enrichment relative to AAV9, Heart (NHP) [1, 6]: 0.000 fold
- Fold Enrichment relative to AAV9, Liver DNA (NHP) [1, 7]: 0.039 fold
- Fold Enrichment relative to AAV9, Liver RNA (NHP) [1, 8]: 0.722 fold
- Fold Enrichment relative to AAV9, Muscle (NHP) [1, 9]: 0.000 fold
- Fold Enrichment relative to AAV9, Brain (Mouse) [2, 10]: 87.761 fold

Reference: patent US20260250318A1, “COMPOSITIONS AND METHODS FOR CROSSING THE BLOOD BRAIN BARRIER” (VOYAGER THERAPEUTICS, INC., priority 2022, published 2026)
